The record followed here is patent US20260234166A1, “FUSED RING COMPOUND AND USE THEREOF” (HITGEN INC., priority 2023, published 2026).

The experiment deals with CRBN/DDB1 protein (Homo sapiens, UniProt Q96SW2). Description: Detection of inhibition of CRBN/DDB1 activity by compounds (FRET). Format: binding. Here is the method: Test Example 1 Detection of Inhibition of CRBN/DDB1 Activity by Compounds (FRET)
Microplate reader (BMG PHERAstar FSX), ECHO (LABCYTE Echo 665), microplate thermostatic oscillator (Hangzhou Ruicheng Instrument Co., Ltd.), disodium hydrogen phosphate (Sigma), sodium dihydrogen phosphate (Sigma), bovine serum albumin (Sigma), Anti-6His-Tb crypate Gold (CISBIO), CRBN/DDB1 protein (HitGen) and 384-well plate (Grenier Bio-one).
The dry powder of the compound was dissolved in DMSO, and the compound was serially diluted using ECHO, and added to a 384-well reaction plate, so that the final concentration of DMSO in the whole reaction system (10.0 μL) was 1.0%, and the same amount of DMSO was added as a control.
20 mM disodium hydrogen phosphate, 20 mM sodium dihydrogen phosphate, 0.08% bovine serum albumin and buffer with pH of 7.0 were used to dilute the CRBN/DDB1 protein to twice the required final concentration (5.0 nM), and 5.0 μL of the diluted CRBN/DDB1 protein was added into the 384-well reaction plate added with compounds, centrifuged at 1000 rpm for 1 min, then placed on a microplate thermostatic oscillator, and pre-incubated at 25° C. and 250 rpm for 15 min. 20 mM disodium hydrogen phosphate, 20 mM sodium dihydrogen phosphate, 0.08% bovine serum albumin and buffer with a pH of 7.0 were used to dilute Anti-6His-Tb crypate Gold and FITC-labeled thalidomide analogues to twice the required final concentration, and the final concentration of Anti-6His-Tb crypate Gold was 0.2 nM, the final concentration of FITC-labeled thalidomide analogues was 50.0 nM, and a mixed solution of Anti-6His-Tb crypate Gold/FITC-labeled thalidomide analogues was obtained. […] After the reaction was completed, the fluorescence signal value (Ex-337 nm Em=520/490 nm) in the 384-well reaction plate was read by the microplate reader. […]
The percentage of residual activity of each concentration was calculated as follows: […]
Then, the dose-effect curve was fitted using GraphPad Prism 6.0 and the IC50 value was calculated accordingly.

Each structure is given as a SMILES string. Where two headings read alike, the source gives them in different places.

Chain of CRBN/DDB1 protein (Q96SW2 whole entry, species assumed): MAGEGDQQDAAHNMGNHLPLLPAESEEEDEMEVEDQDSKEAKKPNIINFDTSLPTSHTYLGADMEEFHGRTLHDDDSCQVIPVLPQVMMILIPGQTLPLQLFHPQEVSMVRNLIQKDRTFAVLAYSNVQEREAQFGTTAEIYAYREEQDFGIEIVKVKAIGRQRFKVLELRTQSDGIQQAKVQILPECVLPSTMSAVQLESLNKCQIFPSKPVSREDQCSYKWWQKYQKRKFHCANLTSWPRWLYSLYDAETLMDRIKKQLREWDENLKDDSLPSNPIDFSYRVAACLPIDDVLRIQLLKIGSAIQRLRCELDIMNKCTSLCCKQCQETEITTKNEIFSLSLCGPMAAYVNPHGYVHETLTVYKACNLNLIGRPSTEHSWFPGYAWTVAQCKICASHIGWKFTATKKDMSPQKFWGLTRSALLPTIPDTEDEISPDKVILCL
Chain of CRBN/DDB1 protein (Q16531 whole entry partner, species assumed): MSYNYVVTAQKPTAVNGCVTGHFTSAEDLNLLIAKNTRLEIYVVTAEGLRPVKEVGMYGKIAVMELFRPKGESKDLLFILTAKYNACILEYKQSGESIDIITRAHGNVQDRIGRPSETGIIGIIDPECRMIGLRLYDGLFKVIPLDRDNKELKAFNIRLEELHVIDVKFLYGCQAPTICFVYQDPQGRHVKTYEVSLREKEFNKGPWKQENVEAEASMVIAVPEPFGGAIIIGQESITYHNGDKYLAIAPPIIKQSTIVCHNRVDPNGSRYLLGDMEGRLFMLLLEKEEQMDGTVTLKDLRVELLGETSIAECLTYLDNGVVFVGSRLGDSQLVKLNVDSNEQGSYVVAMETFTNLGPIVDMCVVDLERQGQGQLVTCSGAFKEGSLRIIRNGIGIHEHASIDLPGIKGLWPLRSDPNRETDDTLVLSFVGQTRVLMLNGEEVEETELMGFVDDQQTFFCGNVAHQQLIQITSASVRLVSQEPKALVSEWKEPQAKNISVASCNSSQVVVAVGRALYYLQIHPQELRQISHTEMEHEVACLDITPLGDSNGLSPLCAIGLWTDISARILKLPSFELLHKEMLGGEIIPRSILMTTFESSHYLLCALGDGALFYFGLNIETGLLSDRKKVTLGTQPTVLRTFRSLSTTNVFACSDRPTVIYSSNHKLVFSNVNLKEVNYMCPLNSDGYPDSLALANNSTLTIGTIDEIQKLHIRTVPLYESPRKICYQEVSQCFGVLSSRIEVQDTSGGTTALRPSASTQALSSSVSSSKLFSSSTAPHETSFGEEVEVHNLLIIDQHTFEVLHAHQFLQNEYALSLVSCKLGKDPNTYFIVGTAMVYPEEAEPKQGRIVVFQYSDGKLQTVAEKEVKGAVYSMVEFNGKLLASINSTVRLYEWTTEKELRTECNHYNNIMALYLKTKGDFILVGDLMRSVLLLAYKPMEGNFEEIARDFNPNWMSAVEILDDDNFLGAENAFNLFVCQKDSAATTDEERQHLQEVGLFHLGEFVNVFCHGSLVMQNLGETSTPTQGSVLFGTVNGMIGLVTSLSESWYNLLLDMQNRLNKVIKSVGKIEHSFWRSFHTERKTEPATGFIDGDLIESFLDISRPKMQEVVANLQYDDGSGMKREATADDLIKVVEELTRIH

`O=C1CC2(CN(C(=O)c3c4n(c5ccccc35)C=NC4=O)C2)C(=O)N1` [Compound B3]: the IC50 was found to be 43 nM.

The compound `O=C1CC2(CN(C(=O)c3c4n(c5ccccc35)CNC4=O)C2)C(=O)N1` [Compound B4] had an IC50 of 18 nM.

Turning to `CN1Cn2c(c(C(=O)N3CC4(CC(=O)NC4=O)C3)c3ccccc32)C1=O` [Compound B5], the IC50 (FRET, 5.0 nM CRBN/DDB1, 0.2 nM Anti-6His-Tb, 50.0 nM FITC-labeled thalidomide analogue, 1.0% DMSO, 25° C., read-out: IC50, inhibition of CRBN/DDB1 protein) was 11 nM.
